Consider 2 compounds from patent US9096581B2, “Fluoroethyl thiamine or salts thereof and application thereof in preparation of anticoccidial drugs” (GUANGZHOU ORIGMOL FEED-ADDITIVE CO., LTD, priority 2012, dated 2015).

SMILES strings stand for the structures.

The test system of the experiment is Eimeria tenella GD strains. As to the kind of experiment: Comparison with other anticoccidial drugs in chickens infected with Eimeria tenella GD (Embodiment 3). As to conditions: for number of oocysts in cecum / lesion value / average weight gain: 7th day; for lesion value: cecum, scale 0-40; for survival rate / average weight gain / bloody feces scoring: chickens; for bloody feces scoring: 5 days after infecting, score 0-4; for oocyst value: converted per Table 2; for relative weight gain rate: vs non-infected non-drug control. The format is in vivo. On the set-up: oocyst value: scale not given here. The source says:
1-day-old Lingnan yellow chickens, purchased from Poultry Research Unit, Bureau of Animal Husbandry, Guangdong Academy of Agricultural Sciences, bred under coccidium-free environment, and subjected to experiment after no coccidium oocyst is found in feces through microscopic examination when the chickens are 14 days old. Perfect compound feed for chickens: prepared by Huizhou Yuantai Feed Co. Ltd., and containing no antibacterial or anticoccidial additive.
Eimeria tenella GD strains, having no resistance to various anticoccidial drugs. Breeding and amplifying in one chicken before the experiment, collecting fresh oocysts, sporulating, and preserving at 4° C. for later use.
Weighing the 14-day-old experiment chickens one by one, rejecting emaciated chickens or overweighted chickens, selecting healthy chickens of which the individual body weight difference is within 20 g, and dividing into 6 groups with 30 chickens in each group. Groups 1 and 2 are respectively a non-drug-applied and non-coccidium-killed control group and a coccidium-infected and non-drug-applied control group, and Groups 3-6 are respectively added with different anticoccidial drugs according to Table 4. Feeding with feed containing different drugs on the day of experiment grouping, enabling the chickens to freely take in the feed, and feeding the chickens until the experiment ends.
Except the non-coccidium-infected and non-drug-applied control group, giving each experiment chicken in each experiment group with 2.5×10^5 eimeria tenella sporulated oocysts via the crop on next day of the grouping day. During experiment, observing and recording the spirit, appetite, bloody feces situation, death count and the like of the chickens every day. Performing bloody feces scoring on the chickens in each group 5 days after infecting. On the 7th day, respectively weighing all the chickens in each group, then autopsying them, observing cecum lesions and counting the oocysts in the cecum.
The evaluation standard is the same with Embodiment 2.

As to `CO[C@@H]1[C@@H](OC)[C@H](C)[C@@](O)(CC(=O)O)O[C@H]1[C@H](C)[C@H]1O[C@@]2(CC[C@@](C)([C@H]3CC[C@@](C)([C@@H]4O[C@@H]([C@H]5O[C@](C)(O)[C@H](C)C[C@@H]5C)C[C@@H]4O[C@@H]4C[C@H](OC)[C@@H](OC)[C@H](C)O4)O3)O2)C[C@H](O)[C@H]1C` [maduramicin], where the note is “5 ppm in feed”, the “anticoccidial index (ACI)” value is 186.7, the “number of oocysts in cecum” value is 1.265 ×10^6/chicken, the lesion value is 6 and the survival rate is 100%. Further, under “5 ppm in feed”, the average weight gain was 168.4 g/chicken, the bloody feces scoring stood at 0, the oocyst value was 5 and the “relative weight gain rate” value is recorded as 97.7%.
With `Cc1cc(C)nc(O)n1.O=C(Nc1ccc([N+](=O)[O-])cc1)Nc1ccc([N+](=O)[O-])cc1` [nicarbazin], under “125 ppm in feed”, the “anticoccidial index (ACI)” value came out at 192.9, the “number of oocysts in cecum” value is reported as 0 ×10^6/chicken, the lesion value was 0 and the survival rate was determined as 100%. For the same compound, under “125 ppm in feed”, the average weight gain stood at 160.5 g/chicken, the bloody feces scoring came to 0, the oocyst value turned out to be 0 and the “relative weight gain rate” value was found to be 92.9%.
